The values below come from ChEMBL document CHEMBL1201862, “PubChem BioAssay data set” (2004).

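Compound exposure: 48 hours, 5 concentrations, 96-well plates. The concentration for 50% growth inhibition is given as GI50.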 The source made the active and inactive calls. No stated cut-off is given here; in the data, active = GI50 up to about 1.1 µM and inactive = higher.

What all share (assay): NCI anticancer screen, dose series, 48 h
For test [1], the system named is A498.
Test [2] has as its system ACHN.
Test [3] has as its system EKVX.
Test [4] deals with HCC 2998.
Test [5] relates to KM12.
For test [6], the system named is Malme-3M.
Test [7] deals with NCI-H226.
The subject of test [8] is OVCAR-4.
In test [9] the test system is OVCAR-8.
In test [10] the test system is SF-539.
The test system of test [11] is SK-MEL-2.
Test [12] relates to SK-MEL-5.
For test [13], the system named is SN12C.
Test [14] concerns TK-10.
Test [15] relates to UACC-257.
Test [16] concerns HL-60.
Test [17] deals with K562.
Test [18] deals with SNB-19.
Test [19] has as its system RPMI-8226.

Consider `O=C(/C=C1\Nc2ccc([N+](=O)[O-])cc2N=C1NC12CC3CC(CC(C3)C1)C2)c1ccccc1`, for which the GI50 in test [1] was 3.85 µM (inactive); in test [2], > 10 µM (inactive); in test [3], > 10 µM (inactive); in test [4], > 10 µM (inactive); in [5] it was > 10 µM (inactive); in test [6], > 10 µM (inactive). For the same molecule, the GI50 in test [7] was 5.5 µM (inactive); in test [8], 3.96 µM (inactive); in test [9] it was 9.64 µM (inactive); in test [10] it was 5.41 µM (inactive); in test [11], > 10 µM (inactive); in [12], > 10 µM (inactive). In addition, the GI50 in test [13] is > 10 µM (inactive); in test [14], 9.91 µM (inactive); in [15], > 10 µM (inactive).

Turning to `O=C1C=C(c2ccccc2)NC1(c1ccccc1)c1cc(-c2ccccc2)[nH]c1-c1ccccc1` (stereo not given), the GI50 in test [1], in test [2], in test [3], in test [4], in [16] and in [17] was > 100 µM (inactive) each time. Further, the GI50 in test [5], in [8], in test [9], in [10], in test [11] and in test [13] was > 100 µM (inactive) each time. The GI50 in [18] and in test [15] was > 100 µM (inactive) throughout.

On to `CCC1=C(CC)C1(C#N)[N+](=O)[O-]`, for which the GI50 in [1], in test [2], in test [3], in [16], in test [17] and in test [5] was > 100 µM (inactive) throughout. The GI50 in [6] was > 100 µM (inactive); in test [7], > 100 µM (inactive); in test [8], > 100 µM (inactive); in test [9] it was > 100 µM (inactive); in [19], 82.2 µM (inactive); in test [10], > 100 µM (inactive). In addition, the GI50 in test [11], in test [12], in [13], in test [18], in test [14] and in test [15] was > 100 µM (inactive) throughout.

Take `O=C(CC/C(CC(=O)c1ccc(Cl)cc1)=N\O)Nc1cccc(Cl)c1`: the GI50 in [1], in [2], in [3], in [4], in test [17] and in [5] was > 100 µM (inactive) in each case. For the same molecule, the GI50 in [6], in test [8], in [9], in [19], in test [10] and in test [11] was > 100 µM (inactive) each time. In addition, the GI50 in test [12], in test [13], in test [18], in test [14] and in [15] was > 100 µM (inactive) each time.

Take `CCOP(=O)(OCC)OC1c2[nH]ccc2-c2cc(C(=O)OC)[nH]c2C1OC` (stereo not given): the GI50 in [2] was > 100 µM (inactive); in test [3], > 100 µM (inactive); in test [4] it was > 100 µM (inactive); in test [16], 62.1 µM (inactive); in test [17], > 100 µM (inactive); in [5], 58.7 µM (inactive). In addition, the GI50 in test [6] is > 100 µM (inactive); in test [8], > 100 µM (inactive); in test [9], > 100 µM (inactive); in [10], > 100 µM (inactive); in [11] it was > 100 µM (inactive); in test [12] it was 38.5 µM (inactive). In addition, the GI50 was > 100 µM (inactive) in test [13], > 100 µM (inactive) in [18], 73.6 µM (inactive) in test [14] and > 100 µM (inactive) in [15].

For `Cn1c(=O)c2c(ncn2Cc2ccc(O)c([N+](=O)[O-])c2)n(C)c1=O`, the GI50 in test [1], in test [2], in [3], in test [16], in test [17] and in [5] was > 100 µM (inactive) throughout. Further, the GI50 in [7], in test [8], in [9], in [19], in [10] and in test [11] was > 100 µM (inactive) in each case. The GI50 in [12], in [13], in test [18], in [14] and in test [15] was > 100 µM (inactive) throughout.

In the case of `CCC1(c2ccc(OC)c(OC)c2)CCN2C(=O)C(O)CC21` (stereo not given), the GI50 in test [2], in test [3], in [4], in [17], in test [5] and in test [7] was > 100 µM (inactive) throughout. The GI50 in test [8], in test [11], in test [12], in test [13], in test [18] and in test [14] was > 100 µM (inactive) each time. In addition, the GI50 in test [15] was > 100 µM (inactive).

As to `CC1(C)Cc2c(oc3ncnc(N)c23)CS1`, the GI50 in test [2], in test [3], in test [4], in test [17], in test [5] and in test [6] was > 100 µM (inactive) in each case. The GI50 was 89.7 µM (inactive) in test [7]; > 100 µM (inactive) in test [8]; > 100 µM (inactive) in test [9]; > 100 µM (inactive) in test [19]; > 100 µM (inactive) in test [10]; > 100 µM (inactive) in test [11]. The GI50 in [12], in test [13], in test [18] and in test [15] was > 100 µM (inactive) in each case.

As to `OC(c1ccccc1Br)(c1ccccc1Br)C(F)(F)F`, the GI50 was 30.1 µM (inactive) in [1]; 20.1 µM (inactive) in test [2]; 33.9 µM (inactive) in [3]; 0.322 µM (active) in test [4]; 15.6 µM (inactive) in [5]; 24 µM (inactive) in test [6]. The GI50 is 10.9 µM (inactive) in [7]; 29.2 µM (inactive) in [8]; 39.4 µM (inactive) in test [9]; 33.2 µM (inactive) in [10]; 18.5 µM (inactive) in [11]; 19.1 µM (inactive) in test [13]. Moreover, the GI50 is > 10 µM (inactive) in [18], 52.1 µM (inactive) in [14] and 37.8 µM (inactive) in test [15].

With `OCC(O)C(OC1OC(CO)C(O)C(O)C1O)c1nn(-c2ccc(Cl)cc2)c2nc3cc(Cl)ccc3nc12` (stereo not given), the GI50 in test [1], in test [2], in test [3], in [4], in test [17] and in test [5] was > 100 µM (inactive) each time. Also, the GI50 in test [6], in test [8], in test [9], in test [19], in test [10] and in test [13] was > 100 µM (inactive) throughout. For the same molecule, the GI50 in [18], in test [14] and in test [15] was > 100 µM (inactive) throughout.

For `CC(C)=CCC/C(C)=C/Cc1c2c(c3oc(-c4ccc(O)c(O)c4)c(O)c(=O)c3c1O)C=CC(C)(C)O2`, the GI50 in test [1] was 6.32 µM (inactive); in [2] it was 2.22 µM (inactive); in test [16] it was 1.68 µM (inactive); in test [17] it was 2.44 µM (inactive); in test [5], 3.45 µM (inactive); in test [6], 0.665 µM (active). Moreover, the GI50 in test [7] was 6.22 µM (inactive); in test [8] it was 2.25 µM (inactive); in test [9] it was 2.05 µM (inactive); in [19], 1.82 µM (inactive); in [10], 1.79 µM (inactive); in test [11] it was 6.58 µM (inactive). For the same molecule, the GI50 in test [12] is 2.95 µM (inactive); in test [13] it was 5.98 µM (inactive); in test [18], 5.85 µM (inactive); in [14], 5.24 µM (inactive); in [15] it was 5.22 µM (inactive).

For `CCOC(C)OCC#CCCBr` (stereo not given), the GI50 in [2] was > 100 µM (inactive); in test [3], > 100 µM (inactive); in test [4], > 100 µM (inactive); in test [16] it was 80.5 µM (inactive); in test [17], 59.7 µM (inactive); in test [5] it was > 100 µM (inactive). Also, the GI50 in test [6], in test [8], in [9], in [19], in test [10] and in test [11] was > 100 µM (inactive) in each case. The GI50 in test [12], in [13], in test [18], in [14] and in test [15] was > 100 µM (inactive) each time.
